The target in this assay is T1, cyclooxygenase (COX-2) (Ovis aries, UniProt P79208).
T1 construct: gene PTGS2
T1 sequence (P79208 17-603): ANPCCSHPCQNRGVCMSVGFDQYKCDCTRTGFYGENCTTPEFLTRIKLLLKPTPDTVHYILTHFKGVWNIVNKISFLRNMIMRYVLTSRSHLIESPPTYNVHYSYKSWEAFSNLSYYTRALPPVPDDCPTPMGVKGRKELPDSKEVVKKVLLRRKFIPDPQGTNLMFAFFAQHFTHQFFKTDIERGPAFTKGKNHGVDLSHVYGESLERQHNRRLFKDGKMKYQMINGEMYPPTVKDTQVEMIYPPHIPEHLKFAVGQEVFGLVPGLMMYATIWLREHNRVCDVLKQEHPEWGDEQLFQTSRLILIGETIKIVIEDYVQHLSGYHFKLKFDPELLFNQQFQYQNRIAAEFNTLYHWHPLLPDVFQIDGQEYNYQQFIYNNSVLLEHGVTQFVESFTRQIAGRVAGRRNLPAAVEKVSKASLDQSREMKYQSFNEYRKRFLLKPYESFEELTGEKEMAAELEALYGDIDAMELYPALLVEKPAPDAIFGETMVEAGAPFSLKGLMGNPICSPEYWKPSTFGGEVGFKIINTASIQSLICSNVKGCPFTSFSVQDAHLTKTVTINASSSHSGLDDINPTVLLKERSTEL
Kind of assay: COX colorimetric inhibitor screening assay kit (Cayman), ovine recombinant COX-2. The format is biochemical.

The record followed here is publication PMC7587970, “Lanostane Triterpenoids from the Fruiting Bodies of Fomes officinalis and Their Anti-Inflammatory Activities” (Molecules, 2020).

pIC50: −log10 of the molar value. Read-outs that look alike come from different tables or passages of the source.

Take `C[C@@H]1C[C@]2(OC[C@]34[C@H](O)C=C5C(=CC[C@H]6C(C)(C)[C@H](OC(=O)CC(=O)O)CC[C@]56C)[C@]3(C)CC[C@H]14)OC(=O)[C@@H](C)[C@@H]2C` [compound 3, officimalonic acid K]: the pIC50 (read-out: IC50) was 4.52.

Turning to `COC(=O)CC(=O)O[C@@H]1CC[C@]2(C)C3=C(C(=O)C[C@H]2C1(C)C)[C@]1(C)CC[C@H]([C@H](C)C[C@@H]2OC(=O)C(C)=C2C)[C@@]1(C)[C@H](O)C3` [compound 5, officimalonic acid M], the negative logarithm of the IC50 (pIC50) (read-out: IC50) is 4.37.

For `COc1ccc2cc([C@H](C)C(=O)O)ccc2c1` [naproxen, reference compound], the pIC50 is 5.09.
